Species: Rattus norvegicus
Experiment: DrugMatrix - Regimen: Daily Repeat
Assay type: toxicity, organism-based, Sprague-Dawley
Parameters: regimen Daily Repeat, gender Male, age 6-8 weeks
Details: in vivo, po, route oral GAVAGE, vehicle .5 % CMC; for BASOPHIL / EOSINOPHIL / ERYTHROCYTE COUNT / HEMATOCRIT / LEUKOCYTE COUNT / LYMPHOCYTE / MEAN CORPUSCULAR HEMOGLOBIN / MEAN CORPUSCULAR HEMOGLOBIN CONCENTRATION / MEAN CORPUSCULAR VOLUME / MONOCYTE / NEUTROPHIL / PLATELET COUNT: tissue Blood; for ALANINE AMINOTRANSFERASE / ALBUMIN / ALKALINE PHOSPHATASE / ASPARTATE AMINOTRANSFERASE / BLOOD UREA NITROGEN / CHLORIDE / CHOLESTEROL / CREATININE / GLUCOSE / PHOSPHORUS / POTASSIUM / TOTAL BILIRUBIN / TOTAL PROTEIN: tissue Plasma
[1] = 0 mg/kg, 72 h, dose level Control, time 3 day
[2] = 0 mg/kg, 120 h, dose level Control, time 5 day
[3] = 10 mg/kg, 72 h, dose level Low, time 3 day
[4] = 10 mg/kg, 120 h, dose level Low, time 5 day
[5] = 52 mg/kg, 72 h, dose level High, time 3 day
[6] = 52 mg/kg, 120 h, dose level High, time 5 day

SMILES: CNCCC(Oc1ccc(C(F)(F)F)cc1)c1ccccc1 (configuration not stated) [FLUOXETINE]
- BASOPHIL [1]: 0%
- EOSINOPHIL [1]: 0%
- ERYTHROCYTE COUNT [1]: 6.34 x10E6/uL
- HEMATOCRIT [1]: 37.62%
- LEUKOCYTE COUNT [1]: 11.18 x10E3/uL
- LYMPHOCYTE [1]: 87.5%
- MEAN CORPUSCULAR HEMOGLOBIN [1]: 23.48 pg
- MEAN CORPUSCULAR HEMOGLOBIN CONCENTRATION [1]: 39.5 G/DL
- MEAN CORPUSCULAR VOLUME [1]: 59.45 fL
- MONOCYTE [1]: 1.67%
- NEUTROPHIL [1]: 10.83%
- PLATELET COUNT [1]: 1074.83 x10E3/uL
- ALANINE AMINOTRANSFERASE [1]: 36.5 u/L
- ALBUMIN [1]: 3.9 G/DL
- ALKALINE PHOSPHATASE [1]: 370.17 u/L
- ASPARTATE AMINOTRANSFERASE [1]: 63.17 u/L
- BLOOD UREA NITROGEN [1]: 16.83 mg/dL
- CHLORIDE [1]: 99.33 MEQ/L
- CHOLESTEROL [1]: 64.33 mg/dL
- CREATININE [1]: 0.55 mg/dL
- GLUCOSE [1]: 173.5 mg/dL
- PHOSPHORUS [1]: 10.08 mg/dL
- POTASSIUM [1]: 6.23 MEQ/L
- TOTAL BILIRUBIN [1]: 0.52 mg/dL
- TOTAL PROTEIN [1]: 6.35 G/DL
- BASOPHIL [2]: 0%
- EOSINOPHIL [2]: 0.17%
- ERYTHROCYTE COUNT [2]: 6.12 x10E6/uL
- HEMATOCRIT [2]: 37.08%
- LEUKOCYTE COUNT [2]: 11.87 x10E3/uL
- LYMPHOCYTE [2]: 83.33%
- MEAN CORPUSCULAR HEMOGLOBIN [2]: 24.25 pg
- MEAN CORPUSCULAR HEMOGLOBIN CONCENTRATION [2]: 39.97 G/DL
- MEAN CORPUSCULAR VOLUME [2]: 60.65 fL
- MONOCYTE [2]: 1.5%
- NEUTROPHIL [2]: 15%
- PLATELET COUNT [2]: 1042.83 x10E3/uL
- ALANINE AMINOTRANSFERASE [2]: 46 u/L
- ALBUMIN [2]: 3.82 G/DL
- ALKALINE PHOSPHATASE [2]: 369.5 u/L
- ASPARTATE AMINOTRANSFERASE [2]: 65 u/L
- BLOOD UREA NITROGEN [2]: 16.33 mg/dL
- CHLORIDE [2]: 100.67 MEQ/L
- CHOLESTEROL [2]: 57.17 mg/dL
- CREATININE [2]: 0.53 mg/dL
- GLUCOSE [2]: 163.33 mg/dL
- PHOSPHORUS [2]: 9.53 mg/dL
- POTASSIUM [2]: 6.27 MEQ/L
- TOTAL BILIRUBIN [2]: 0.55 mg/dL
- TOTAL PROTEIN [2]: 6.32 G/DL
- BASOPHIL [3]: 0%
- EOSINOPHIL [3]: 0%
- ERYTHROCYTE COUNT [3]: 6.11 x10E6/uL
- HEMATOCRIT [3]: 38.43%
- LEUKOCYTE COUNT [3]: 11.83 x10E3/uL
- LYMPHOCYTE [3]: 84.67%
- MEAN CORPUSCULAR HEMOGLOBIN [3]: 24.53 pg
- MEAN CORPUSCULAR HEMOGLOBIN CONCENTRATION [3]: 39 G/DL
- MEAN CORPUSCULAR VOLUME [3]: 62.8 fL
- MONOCYTE [3]: 1.67%
- NEUTROPHIL [3]: 13.67%
- PLATELET COUNT [3]: 1383.67 x10E3/uL
- ALANINE AMINOTRANSFERASE [3]: 32.67 u/L
- ALBUMIN [3]: 4 G/DL
- ALKALINE PHOSPHATASE [3]: 373.67 u/L
- ASPARTATE AMINOTRANSFERASE [3]: 53 u/L
- BLOOD UREA NITROGEN [3]: 15.67 mg/dL
- CHLORIDE [3]: 99.33 MEQ/L
- CHOLESTEROL [3]: 78 mg/dL
- CREATININE [3]: 0.5 mg/dL
- GLUCOSE [3]: 162 mg/dL
- PHOSPHORUS [3]: 11 mg/dL
- POTASSIUM [3]: 5.93 MEQ/L
- TOTAL BILIRUBIN [3]: 0.33 mg/dL
- TOTAL PROTEIN [3]: 6.6 G/DL
- BASOPHIL [4]: 0%
- EOSINOPHIL [4]: 0.33%
- ERYTHROCYTE COUNT [4]: 6.65 x10E6/uL
- HEMATOCRIT [4]: 39.33%
- LEUKOCYTE COUNT [4]: 11.3 x10E3/uL
- LYMPHOCYTE [4]: 91%
- MEAN CORPUSCULAR HEMOGLOBIN [4]: 23.1 pg
- MEAN CORPUSCULAR HEMOGLOBIN CONCENTRATION [4]: 39.1 G/DL
- MEAN CORPUSCULAR VOLUME [4]: 59.13 fL
- MONOCYTE [4]: 0.67%
- NEUTROPHIL [4]: 8%
- PLATELET COUNT [4]: 1162.33 x10E3/uL
- ALANINE AMINOTRANSFERASE [4]: 35 u/L
- ALBUMIN [4]: 3.83 G/DL
- ALKALINE PHOSPHATASE [4]: 381 u/L
- ASPARTATE AMINOTRANSFERASE [4]: 55 u/L
- BLOOD UREA NITROGEN [4]: 13.67 mg/dL
- CHLORIDE [4]: 97.67 MEQ/L
- CHOLESTEROL [4]: 67.67 mg/dL
- CREATININE [4]: 0.57 mg/dL
- GLUCOSE [4]: 169 mg/dL
- PHOSPHORUS [4]: 12.13 mg/dL
- POTASSIUM [4]: 6.2 MEQ/L
- TOTAL BILIRUBIN [4]: 0.43 mg/dL
- TOTAL PROTEIN [4]: 6.3 G/DL
- BASOPHIL [5]: 0%
- EOSINOPHIL [5]: 0.33%
- ERYTHROCYTE COUNT [5]: 6.76 x10E6/uL
- HEMATOCRIT [5]: 40.83%
- LYMPHOCYTE [5]: 90%
- MEAN CORPUSCULAR HEMOGLOBIN [5]: 24.27 pg
- MEAN CORPUSCULAR HEMOGLOBIN CONCENTRATION [5]: 40.07 G/DL
- MEAN CORPUSCULAR VOLUME [5]: 60.57 fL
- MONOCYTE [5]: 1%
- NEUTROPHIL [5]: 8.67%
- PLATELET COUNT [5]: 1353.67 x10E3/uL
- ALANINE AMINOTRANSFERASE [5]: 23.67 u/L
- ALBUMIN [5]: 3.93 G/DL
- ALKALINE PHOSPHATASE [5]: 317 u/L
- ASPARTATE AMINOTRANSFERASE [5]: 55.67 u/L
- BLOOD UREA NITROGEN [5]: 14.67 mg/dL
- CHLORIDE [5]: 97.67 MEQ/L
- CHOLESTEROL [5]: 88.33 mg/dL
- CREATININE [5]: 0.63 mg/dL
- GLUCOSE [5]: 135.67 mg/dL
- POTASSIUM [5]: 6.83 MEQ/L
- TOTAL BILIRUBIN [5]: 0.47 mg/dL
- BASOPHIL [6]: 0%
- EOSINOPHIL [6]: 0%
- ERYTHROCYTE COUNT [6]: 7.1 x10E6/uL
- HEMATOCRIT [6]: 41.93%
- LEUKOCYTE COUNT [6]: 12.47 x10E3/uL
- LYMPHOCYTE [6]: 88.67%
- MEAN CORPUSCULAR HEMOGLOBIN [6]: 23.53 pg
- MEAN CORPUSCULAR HEMOGLOBIN CONCENTRATION [6]: 39.7 G/DL
- MEAN CORPUSCULAR VOLUME [6]: 59.33 fL
- MONOCYTE [6]: 0.33%
- NEUTROPHIL [6]: 11%
- PLATELET COUNT [6]: 1164.33 x10E3/uL
- ALANINE AMINOTRANSFERASE [6]: 37 u/L
- ALBUMIN [6]: 3.8 G/DL
- ALKALINE PHOSPHATASE [6]: 263.33 u/L
- ASPARTATE AMINOTRANSFERASE [6]: 65.67 u/L
- BLOOD UREA NITROGEN [6]: 13.67 mg/dL
- CHLORIDE [6]: 98.33 MEQ/L
- CHOLESTEROL [6]: 79.67 mg/dL
- CREATININE [6]: 0.6 mg/dL
- GLUCOSE [6]: 142.33 mg/dL
- PHOSPHORUS [6]: 12.27 mg/dL
- POTASSIUM [6]: 6.23 MEQ/L
- TOTAL BILIRUBIN [6]: 0.4 mg/dL
- TOTAL PROTEIN [6]: 6.3 G/DL

Source: ChEMBL document CHEMBL3885881, “DrugMatrix”
